In ChEMBL document CHEMBL1152415, “Potent antitumor bifunctional DNA alkylating agents, synthesis and biological activities of 3a-aza-cyclopenta[a]indenes” (Bioorg Med Chem, 2009):
Active and inactive are the calls of the source. The calls are words filed in the database; no cut-off is given here.

Tests used:
CCRF-CEM [1] = experiment: Cytotoxicity against human taxol-resistant CCRF-CEM cells after 72 hrs by XTT assay; format: functional, cell-based
CCRF-CEM [2] = experiment: Cytotoxicity against human CCRF-CEM cells after 72 hrs by XTT assay; format: functional, cell-based
CCRF-CEM [3] = experiment: Cross-resistance, IC50 for human taxol-resistant CCRF-CEM cells to IC50 for human CCRF-CEM cells; format: functional
HCT-116 = experiment: Cytotoxicity against human HCT116 cells after 72 hrs by SRB assay; format: functional, cell-based; conditions: HCT-116, 72 h
CCRF-CEM [4] = experiment: Cross-resistance, IC50 for human vinblastine-resistant CCRF-CEM cells to IC50 for human CCRF-CEM cells; format: functional
CCRF-CEM [5] = experiment: Cytotoxicity against human vinblastine-resistant CCRF-CEM cells after 72 hrs by XTT assay; format: functional, cell-based
MX1 = experiment: Cytotoxicity against human MX1 cells after 72 hrs by SRB assay; format: functional, cell-based; conditions: MX1, 72 h
Nucleic Acid [6] = experiment: Induction of DNA interstrand cross-linking in human H1299 cells at 100 uM under aerobic condition for 1 hr followed by irradiated with 20 Gy of X-ray by modified comet assay relative to irradiated untreated control; format: cell-based
[7] = Cytotoxicity against human OECM1 cells after 72 hrs by WST-1 assay; format: functional, cell-based; conditions: OECM1, 72 h
[8] = Cytotoxicity against human U87 cells after 72 hrs by WST-1 assay; format: functional, cell-based, U-87MG ATCC; conditions: U-87 MG
PC-3 = experiment: Cytotoxicity against human PC3 cells after 72 hrs by WST-1 assay; format: functional, cell-based; conditions: PC-3, 72 h
[9] = Cytotoxicity against human H1299 cells after 72 hrs by WST-1 assay; format: functional, cell-based; conditions: NCI-H1299, 72 h
Nucleic Acid [10] = experiment: Induction of pEGFP-N1 plasmid DNA interstrand cross-linking at 1 uM after 2 hrs by alkaline agarose gel shift assay; format: nucleic-acid assay
[11] = Cell cycle arrest in human H1299 cells assessed as accumulation at G2/M phase at 10 uM after 72 hrs by flow cytometry relative to control; format: functional, cell-based; conditions: NCI-H1299
[12] = Cell cycle arrest in human H1299 cells assessed as accumulation at subG1 phase at 10 uM after 48 hrs by flow cytometry relative to control; format: functional, cell-based; conditions: NCI-H1299
[13] = Cell cycle arrest in human H1299 cells assessed as accumulation at S phase at 10 uM after 24 hrs by flow cytometry relative to control; format: functional, cell-based; conditions: NCI-H1299
[14] = Cell cycle arrest in human H1299 cells assessed as accumulation at G0/G1 phase at 10 uM after 48 hrs by flow cytometry relative to control; format: functional, cell-based; conditions: NCI-H1299
[15] = Cell cycle arrest in human H1299 cells assessed as accumulation at S phase at 10 uM after 48 hrs by flow cytometry relative to control; format: functional, cell-based; conditions: NCI-H1299
[16] = Cell cycle arrest in human H1299 cells assessed as accumulation at G0/G1 phase at 10 uM after 24 hrs by flow cytometry relative to control; format: functional, cell-based; conditions: NCI-H1299
[17] = Cell cycle arrest in human H1299 cells assessed as accumulation at subG1 phase at 10 uM after 72 hrs by flow cytometry relative to control; format: functional, cell-based; conditions: NCI-H1299
[18] = Cell cycle arrest in human H1299 cells assessed as accumulation at S phase at 10 uM after 72 hrs by flow cytometry relative to control; format: functional, cell-based; conditions: NCI-H1299
[19] = Cell cycle arrest in human H1299 cells assessed as accumulation at G2/M phase at 10 uM after 24 hrs by flow cytometry relative to control; format: functional, cell-based; conditions: NCI-H1299
[20] = Cell cycle arrest in human H1299 cells assessed as accumulation at G0/G1 phase at 10 uM after 72 hrs by flow cytometry relative to control; format: functional, cell-based; conditions: NCI-H1299
Nucleic Acid [21] = experiment: Induction of pEGFP-N1 plasmid DNA interstrand cross-linking at 20 uM after 2 hrs by alkaline agarose gel shift assay; format: nucleic-acid assay
Nucleic Acid [22] = experiment: Induction of pEGFP-N1 plasmid DNA interstrand cross-linking at 10 uM after 2 hrs by alkaline agarose gel shift assay; format: nucleic-acid assay
[23] = Cell cycle arrest in human H1299 cells assessed as accumulation at G2/M phase at 10 uM after 48 hrs by flow cytometry relative to control; format: functional, cell-based; conditions: NCI-H1299
[24] = Cell cycle arrest in human H1299 cells assessed as accumulation at subG1 phase at 10 uM after 24 hrs by flow cytometry relative to control; format: functional, cell-based; conditions: NCI-H1299

SMILES | IC50 (CCRF-CEM [1]) | IC50 (CCRF-CEM [2]; read-out: IC50) | Ratio IC50 (CCRF-CEM [3]) | IC50 (HCT-116) | Ratio IC50 (CCRF-CEM [4]) | IC50 (CCRF-CEM [5]) | IC50 (MX1) | also measured
COc1ccc(-c2c(CO)c(CO)c3n2-c2ccccc2C3)cc1OC | 1100 nM | 1000 nM | 1.1 | 4300 nM | 1.8 | 1900 nM | 11000 nM | 
CNC(=O)OCc1c(COC(=O)NC)c(-c2ccccc2)n2c1Cc1ccccc1-2 | 1700 nM | 360 nM | 4.7 | 750 nM | 1.6 | 550 nM | 5900 nM | 
CNC(=O)OCc1c(COC(=O)NC)c(-c2ccc(F)cc2)n2c1Cc1ccccc1-2 | 300 nM | 140 nM | 2.2 | 400 nM | 2 | 280 nM | 740 nM | 
OCc1c(CO)c(-c2ccc(F)cc2)n2c1Cc1ccccc1-2 | 7200 nM | 4500 nM | 1.6 | 8700 nM | 2.5 | 11000 nM | 22000 nM | 
CNC(=O)OCc1c(COC(=O)NC)c(-c2c(OC)cccc2OC)n2c1Cc1ccccc1-2 | 720 nM | 640 nM | 1.1 | 1100 nM | 0.97 | 620 nM | 5300 nM | 
CNC(=O)OCc1c(COC(=O)NC)c(-c2ccc(Cl)cc2)n2c1Cc1ccccc1-2 | 3300 nM | 5700 nM | 0.58 | 8900 nM | 0.4 | 2300 nM | 9900 nM | 
CNC(=O)OCc1c(COC(=O)NC)c(-c2cc(OC)c(OC)c(OC)c2)n2c1Cc1ccccc1-2 | 8400 nM | 12000 nM | 0.73 | 1900 nM | 1.2 | 14000 nM | 7200 nM | 
COc1ccccc1-c1c(CO)c(CO)c2n1-c1ccccc1C2 | 1900 nM | 1000 nM | 1.9 | 12000 nM | 2.6 | 2700 nM | 8700 nM | 
CO[C@@]12[C@H](COC(N)=O)C3=C(C(=O)C(C)=C(N)C3=O)N1C[C@@H]1N[C@@H]12 |  |  |  |  |  |  |  | Activity (Nucleic Acid [6]): 76.5%
COc1ccc(-c2c(CO)c(CO)c3n2-c2ccccc2C3)cc1 | 1700 nM | 1200 nM | 1.5 | 6100 nM | 1.4 | 1600 nM | 11000 nM | IC50 [7]: 9260 nM; IC50 [8]: 45500 nM; IC50 (PC-3): 55500 nM; IC50 [9]: 50300 nM
CNC(=O)OCc1c(COC(=O)NC)c(-c2ccc(OC)c(OC)c2)n2c1Cc1ccccc1-2 | 390 nM | 350 nM | 1.1 | 660 nM | 1.4 | 500 nM | 1800 nM | 
OCc1c(CO)c(-c2ccc(Cl)cc2)n2c1Cc1ccccc1-2 | 2400 nM | 4300 nM | 0.55 | 5700 nM | 1 | 4500 nM | 6100 nM | 
CNC(=O)OCc1c(COC(=O)NC)c(-c2ccc(F)c(F)c2)n2c1Cc1ccccc1-2 | 610 nM | 640 nM | 0.97 | 900 nM | 1 | 650 nM | 8200 nM | 
COc1ccc(-c2c(CO)c(CO)c3n2-c2ccc(OC)cc2C3)cc1 | 62 nM | 120 nM | 0.53 | 670 nM | 1.2 | 140 nM | 1500 nM | IC50 [7]: 1540 nM; Activity (Nucleic Acid [10]): Active; Activity [11]: 73.6%; Activity [12]: 3.88%; Activity [13]: 50.5%; Activity [14]: 19.3%; Activity [15]: 38.9%; Activity [16]: 43.7%; Activity (Nucleic Acid [6]): 35.5%; Activity [17]: 15.6%; Activity [18]: 24.6%; Activity [19]: 5.84%; Activity [20]: 1.8%; Activity (Nucleic Acid [21]): Active; Activity (Nucleic Acid [22]): Active; IC50 [8]: 24400 nM; IC50 (PC-3): 23200 nM; IC50 [9]: 19000 nM; Activity [23]: 41.9%; Activity [24]: 1.95%
CC[C@]1(O)C[C@@H]2CN(CCc3c([nH]c4ccccc34)[C@@](C(=O)OC)(c3cc4c(cc3OC)N(C)[C@H]3[C@@](O)(C(=O)OC)[C@H](OC(C)=O)[C@]5(CC)C=CCN6CC[C@]43[C@@H]65)C2)C1 [VINBLASTINE] |  |  | 685 |  | 107 |  |  | 
COc1cccc(OC)c1-c1c(CO)c(CO)c2n1-c1ccccc1C2 | 6200 nM | 8100 nM | 0.76 | 43000 nM | 0.92 | 7500 nM | 26000 nM | 
CCc1c(COC(=O)NC)c(COC(=O)NC)c2n1-c1ccccc1C2 | 80 nM | 70 nM | 1.2 | 710 nM | 1.5 | 100 nM | 660 nM | IC50 [7]: 11800 nM; IC50 [8]: > 50000 nM; IC50 (PC-3): > 50000 nM; IC50 [9]: > 50000 nM
CC(=O)O[C@H]1C(=O)[C@@]2(C)[C@H]([C@H](OC(=O)c3ccccc3)[C@]3(O)C[C@H](OC(=O)[C@H](O)[C@@H](NC(=O)c4ccccc4)c4ccccc4)C(C)=C1C3(C)C)[C@]1(OC(C)=O)CO[C@@H]1C[C@@H]2O [PACLITAXEL] | 1200 nM |  | 1000 |  | 333 | 400 nM |  | IC50 (CCRF-CEM [2]): 1.2 nM
CNC(=O)OCc1c(COC(=O)NC)c2n(c1C)-c1ccccc1C2 | 120 nM | 120 nM | 0.67 | 300 nM | 0.53 | 63 nM | 340 nM | IC50 [7]: 1450 nM; IC50 [8]: > 50000 nM; IC50 (PC-3): 27200 nM; IC50 [9]: > 50000 nM
OCc1c(CO)c(-c2ccc(F)c(F)c2)n2c1Cc1ccccc1-2 | 7500 nM | 5200 nM | 1.4 | 11000 nM | 1.4 | 7500 nM | 7000 nM | 
OCc1c(CO)c(-c2ccccc2)n2c1Cc1ccccc1-2 | 220 nM | 250 nM | 0.9 | 1900 nM | 1 | 250 nM | 1300 nM | 
CNC(=O)OCc1c(COC(=O)NC)c(-c2ccc(OC)cc2)n2c1Cc1cc(OC)ccc1-2 | 62 nM | 62 nM | 1 | 440 nM | 1.6 | 98 nM | 870 nM | IC50 [7]: 1270 nM; Activity (Nucleic Acid [10]): Active; Activity [11]: 85.8%; Activity [12]: 5.86%; Activity [13]: 51.1%; Activity [14]: 24.9%; Activity [15]: 25.6%; Activity [16]: 44.7%; Activity (Nucleic Acid [6]): 97.9%; Activity [17]: 17.2%; Activity [18]: 9.19%; Activity [19]: 4.15%; Activity [20]: 5.06%; Activity (Nucleic Acid [21]): Active; Activity (Nucleic Acid [22]): Active; IC50 [8]: 38300 nM; IC50 (PC-3): 22000 nM; IC50 [9]: 20900 nM; Activity [23]: 49.5%; Activity [24]: 2.64%
COc1cc(-c2c(CO)c(CO)c3n2-c2ccccc2C3)cc(OC)c1OC | 1100 nM | 2200 nM | 0.52 | 29000 nM | 0.45 | 990 nM | 17000 nM | 
